From patent publication US9156796B2, “Benzoimidazole-carboxylic acid amide derivatives as APJ receptor modulators” (SANOFI, priority 2013, dated 2015)

target: T1, human apelin receptor (Homo sapiens, UniProt P35414); assay: Determination of agonism on the human apelin receptor by a calcium fluorescence assay (FLIPR); assay type: cell-based; settings: EC50 (APJ agonism), HEK293 cells stably transfected with human apelin receptor and Giaq protein, Fluo-4 calcium fluorescence
T1 construct: expressed in transfected cells
T1 sequence (P35414 1-380): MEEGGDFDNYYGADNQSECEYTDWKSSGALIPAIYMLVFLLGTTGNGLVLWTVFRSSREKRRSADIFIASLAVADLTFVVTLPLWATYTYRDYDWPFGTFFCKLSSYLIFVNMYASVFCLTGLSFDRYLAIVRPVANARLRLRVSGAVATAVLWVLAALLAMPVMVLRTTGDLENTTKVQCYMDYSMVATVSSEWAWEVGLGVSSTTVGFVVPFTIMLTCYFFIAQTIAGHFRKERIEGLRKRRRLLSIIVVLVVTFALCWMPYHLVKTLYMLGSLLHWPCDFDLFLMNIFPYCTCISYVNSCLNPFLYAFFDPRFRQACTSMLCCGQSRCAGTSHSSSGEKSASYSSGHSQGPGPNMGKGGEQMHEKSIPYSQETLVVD
Description: Determination of Agonism on the Human Apelin Receptor by a Calcium Fluorescence Assay (FLIPR)
The assay is based on the detection of intracellular calcium changes detected by the selective, calcium-chelating dye Fluo-4 (Molecular Probes). A large fluorescence intensity increase is observed upon calcium association with Fluo-4. The dye is delivered to the cell interior using an acetoxymethylester form of Fluo-4, where the intracellular esterase activity results in the charged species being released and trapped within the cytoplasm of the cell. […] By co-expressing the human apelin receptor and a promiscuous Giaq protein, agonism of the apelin receptor couples to phospholipase-C resulting in intracellular calcium mobilization.
The HEK293 cells were stably transfected with the human apelin receptor and the Giaq protein. Cells were selected and maintained in a log phase of growth at 37° and 5% CO2 in the Iscove's minimal essential medium, 10% fetal calf serum, 1× Penicillin-Streptomycin, 400 μg/mL G418. One day prior the assay, cells were passaged by accutase and plated at a density of 50,000 cells/well onto a 96-well plates with black border but clear bottom (Costar, cat#3904) in a final volume of 200 μl growth medium.
In order to load the cells the next day with the calcium-sensitive dye, growth medium was carefully replaced by dye solution (100 μl/well) containing Fluo-4 (4 μM) in basic measurement buffer (135 mM NaCl, 5 mM KCl, 1 mM magnesium sulphate, 5 mM glucose, 20 mM Hepes, 2.5 mM probenecid; adjusted to pH 7.4). Cells were incubated for 1 h at 37° C., and then washed 3× with buffer containing no dye. The washer was programmed to leave a remaining volume of 150 μl after the third wash in the plate.
During the dye-loading of the cells, a serial compound dilution was performed in a separate 96-well plate with overall 4× increased concentrations. Small aliquots of DMSO stock solutions of the compounds (10 mM in 100% DMSO were aliquoted into 150 μl buffer in the first rows of the 96-well plates, and then serially diluted by a factor of 1:3 transferring each time 30 μl to the next rows already containing 60 μl buffer. All compounds were tested in a least 7 concentrations, each condition was performed in triplicates. As comparator, we used freshly prepared apelin-13 solutions, for which also a concentration-response curve was determined at each measurement day. The compound plate was incubated for 10 min after the final dilutions steps at 37° C. before transferring the dye-loaded cell plate and the compound plate into a FLIPR Tetra reader (Molecular Devices). Measurement within this reader started by pipetting the agonist solution (50 μl) on the cell plate. Overall perform 60 reads were performed with an interval of 2 sec. The maximum of the fluorescence transient was used to calculate the agonistic response of the cells. In order to normalize this response, which may vary from plate to plate we set the maximum fluorescence achieved by 1 μM apelin-13 on this plate as 100%.
EC-50 values for apelin-13 and the apelin receptor compounds described in this patent were determined by standard algorithms using a specific software package.

Row | SMILES | EC50 [nM]
1 | CCC(CC)n1c(Cc2cccs2)nc2cc(C(=O)N[C@H](COC)CC(C)C)ccc21 [Example 207, 1-(1-Ethyl-propyl)-2-thiophen-2-ylmethyl-1H-benzoimidazole-5-carboxylic acid ((S)-1-methoxymethyl-3-methyl-butyl)-amide] | 554

same assay, conditions: HEK293 cells stably transfected with human apelin receptor and Giaq protein, Fluo-4 calcium fluorescence, read-out: EC50 (APJ agonism)

Row | SMILES | EC50 [nM]
2 | CCC(CC)n1c(Cc2cccs2)nc2cc(C(=O)N[C@@H](CC(C)C)C(=O)NC(C)CCCN(CC)CC)ccc21 (stereo partly drawn) [Example 314, 1-(1-Ethyl-propyl)-2-thiophen-2-ylmethyl-1H-benzoimidazole-5-carboxylic acid [(S)-1-(4-diethylamino-1-methyl-butylcarbamoyl)-3-methyl-butyl]-amide] | 474
3 | CCC(CC)n1c(Cc2cccs2)nc2cc(C(=O)N[C@@H](CC(C)C)C(=O)NCCc3ccccc3OC)ccc21 [Example 362, 1-(1-Ethyl-propyl)-2-thiophen-2-ylmethyl-1H-benzoimidazole-5-carboxylic acid {(S)-1-[2-(2-methoxy-phenyl)-ethylcarbamoyl]-3-methyl-butyl}-amide] | 27100
4 | CC(C)C[C@H](NC(=O)c1ccc2c(c1)nc(CC1CCCC1)n2C1CCCCC1C)C(=O)O (stereo partly drawn) [Example 150, (S)-2-{[2-Cyclopentylmethyl-1-(2-methyl-cyclohexyl)-1H-benzoimidazole-5-carbonyl]-amino}-4-methyl-pentanoic acid] | 2800
5 | CCC(CC)n1c(Cc2cccs2)nc2cc(C(=O)N[C@@H](CC(C)C)C(=O)N3CCCC(OC)C3)ccc21 (stereo partly drawn) [Example 376, 1-(1-Ethyl-propyl)-2-thiophen-2-ylmethyl-1H-benzoimidazole-5-carboxylic acid [(S)-1-(3-methoxy-piperidine-1-carbonyl)-3-methyl-butyl]-amide] | 1830
6 | CCC(CC)n1c(Cc2cccs2)nc2cc(C(=O)NC(CCO)c3ccsc3)ccc21 (centres unmarked) [Example 212, 1-(1-Ethyl-propyl)-2-thiophen-2-ylmethyl-1H-benzoimidazole-5-carboxylic acid (3-hydroxy-1-thiophen-3-yl-propyl)-amide] | 9290
7 | CCC(CC)n1c(Cc2cccs2)nc2cc(C(=O)N[C@@H](CC(C)C)C(=O)NCCCN3CCS(=O)(=O)CC3)ccc21 [Example 342, 1-(1-Ethyl-propyl)-2-thiophen-2-ylmethyl-1H-benzoimidazole-5-carboxylic acid {(S)-1-[3-(1,1-dioxo-1lambda6-thiomorpholin-4-yl)-propylcarbamoyl]-3-methyl-butyl}-amide] | 999
8 | CC(C)C[C@H](NC(=O)c1ccc2c(c1)nc(Cc1cccs1)n2[C@@H]1CCCC[C@H]1C)[C@H](O)CC(=O)O [Example 77, (3R,4S)-3-Hydroxy-6-methyl-4-{[1-((1R,2R)-2-methyl-cyclohexyl)-2-thiophen-2-ylmethyl-1H-benzoimidazole-5-carbonyl]-amino}-heptanoic acid] | 53
9 | CCC(CC)n1c(CC2CCCC2)nc2cc(C(=O)N[C@H](CC(=O)O)CC(C)C)ccc21 [Example 158, (S)-3-{[2-Cyclopentylmethyl-1-(1-ethyl-propyl)-1H-benzoimidazole-5-carbonyl]-amino}-5-methyl-hexanoic acid] | 515
10 | CCCC(CC(=O)O)NC(=O)c1ccc2c(c1)nc(Cc1cccs1)n2[C@@H]1CCCC[C@H]1C (stereo partly drawn) [Example 55, 3-{[1-((1R,2R)-2-Methyl-cyclohexyl)-2-thiophen-2-ylmethyl-1H-benzoimidazole-5-carbonyl]-amino}-hexanoic acid] | 196
11 | CCC(CC)n1c(Cc2cccs2)nc2cc(C(=O)NC3(C(=O)O)CCCCC3)ccc21 [Example 24, 1-{[1-(1-Ethyl-propyl)-2-thiophen-2-ylmethyl-1H-benzoimidazole-5-carbonyl]-amino}-cyclohexanecarboxylic acid] | 219
12 | CCC(CC)n1c(Cc2cccs2)nc2cc(C(=O)N[C@@H](CC(C)C)C(=O)N3CCN(Cc4ccc5c(c4)OCO5)CC3)ccc21 [Example 311, 1-(1-Ethyl-propyl)-2-thiophen-2-ylmethyl-1H-benzoimidazole-5-carboxylic acid [(S)-1-(4-benzo[1,3]dioxol-5-ylmethyl-piperazine-1-carbonyl)-3-methyl-butyl]-amide] | 21200
13 | CC(C)C[C@@H](CC(=O)O)NC(=O)c1ccc2c(c1)nc(Cc1ccco1)n2C1CCCCC1C (single isomer, unassigned) [Example 434] | 425
14 | CCC(CC)n1c(Cc2cccs2)nc2cc(C(=O)N[C@@H](CC(C)C)C(=O)NC3CCN(Cc4ccccn4)CC3)ccc21 [Example 295, 1-(1-Ethyl-propyl)-2-thiophen-2-ylmethyl-1H-benzoimidazole-5-carboxylic acid [(S)-3-methyl-1-(1-pyridin-2-ylmethyl-piperidin-4-ylcarbamoyl)-butyl]-amide] | 1830
15 | CCC(CC)n1c(Cc2cccs2)nc2cc(C(=O)N[C@@H](CC(C)C)C(=O)N3CCC(OC)CC3)ccc21 [Example 373, 1-(1-Ethyl-propyl)-2-thiophen-2-ylmethyl-1H-benzoimidazole-5-carboxylic acid [(S)-1-(4-methoxy-piperidine-1-carbonyl)-3-methyl-butyl]-amide] | 1840
16 | CCC(CC)n1c(Cc2cccs2)nc2cc(C(=O)NC(CC(=O)O)CC(C)(C)C)ccc21 (centres unmarked) [Example 47, 3-{[1-(1-Ethyl-propyl)-2-thiophen-2-ylmethyl-1H-benzoimidazole-5-carbonyl]-amino}-5,5-dimethyl-hexanoic acid] | 2580

Results, then the molecule that gave them:

Row | EC50 [nM] | SMILES
17 | 443 | CCC(CC)n1c(Cc2cccs2)nc2cc(C(=O)N[C@@H](CC3CC3)C(=O)O)ccc21 [Example 21, (S)-3-Cyclopropyl-2-{[1-(1-ethyl-propyl)-2-thiophen-2-ylmethyl-1H-benzoimidazole-5-carbonyl]-amino}-propionic acid]
18 | 4190 | CCC(CC)n1c(Cc2cccs2)nc2cc(C(=O)N[C@@H](CC(=O)O)CC(C)C)ccc21 [Example 48, (R)-3-{[1-(1-Ethyl-propyl)-2-thiophen-2-ylmethyl-1H-benzoimidazole-5-carbonyl]-amino}-5-methyl-hexanoic acid]
19 | 2920 | CCC(CC)n1c(Cc2cccs2)nc2cc(C(=O)N[C@@H](CC(C)C)C(=O)NC(C)CC(C)C)ccc21 (stereo partly drawn) [Example 232, 1-(1-Ethyl-propyl)-2-thiophen-2-ylmethyl-1H-benzoimidazole-5-carboxylic acid [(S)-1-(1,3-dimethyl-butylcarbamoyl)-3-methyl-butyl]-amide]
20 | 1360 | CCC(CC)n1c(Cc2cccs2)nc2cc(C(=O)N[C@@H](CC(C)C)C(=O)NCC3COCCO3)ccc21 (stereo partly drawn) [Example 393, 1-(1-Ethyl-propyl)-2-thiophen-2-ylmethyl-1H-benzoimidazole-5-carboxylic acid {(S)-1-[([1,4]dioxan-2-ylmethyl)-carbamoyl]-3-methyl-butyl}-amide]
21 | 27000 | CCC(C)n1c(CC2CCCC2)nc2cc(C(=O)N[C@@H](CC(C)C)C(=O)O)ccc21 (stereo partly drawn) [Example 149, (S)-2-[(1-sec-Butyl-2-cyclopentylmethyl-1H-benzoimidazole-5-carbonyl)-amino]-4-methyl-pentanoic acid]
22 | 3040 | CC(C)CC(C)n1c(Cc2cccs2)nc2cc(C(=O)N[C@@H](CC(C)C)C(=O)O)ccc21 (stereo partly drawn) [Example 166, (S)-2-{[1-(1,3-Dimethyl-butyl)-2-thiophen-2-ylmethyl-1H-benzoimidazole-5-carbonyl]-amino}-4-methyl-pentanoic acid]
23 | 4550 | CCC(C)n1c(Cc2cccs2)nc2cc(C(=O)N[C@@H](CC(C)C)C(=O)O)ccc21 (stereo partly drawn) [Example 147, (S)-2-[(1-sec-Butyl-2-thiophen-2-ylmethyl-1H-benzoimidazole-5-carbonyl)-amino]-4-methyl-pentanoic acid]
